Measurements as given in BigSolDB 2.1.

Cc1cccc(N(C)C(=S)Oc2ccc3ccccc3c2)c1
solubility (mole fraction)
Conditions	in acetic acid	in ethanol	in ethylene glycol	in isobutanol	in isopropanol	in methanol	in n-butanol	in n-octanol	in n-propanol	in propylene glycol
283.15 K	0.00186	0.000558	5.01e-05	0.000544	0.000365	0.000402	0.00082	0.00145	0.000679	0.000155
288.15 K	0.00249	0.000765	5.88e-05	0.000734	0.00054	0.0005	0.00115	0.00189	0.00104	0.000214
293.15 K	0.00307	0.000957	7.5e-05	0.000933	0.000731	0.000691	0.00154	0.00251	0.00136	0.000264
298.15 K	0.00359	0.00125	8.76e-05	0.00137	0.000965	0.000843	0.00207	0.00311	0.00171	0.000335
303.15 K	0.0045	0.00161	0.000107	0.00174	0.00125	0.00102	0.00264	0.004	0.00218	0.000413
308.15 K	0.00574	0.00196	0.000129	0.0025	0.00168	0.00119	0.00345	0.00526	0.00286	0.000542
313.15 K	0.00779	0.00241	0.000156	0.00316	0.00225	0.00149	0.00448	0.00708	0.00351	0.00068
318.15 K	0.00993	0.00287	0.000201	0.00409	0.00273	0.00181	0.00568	0.00896	0.00451	0.000785
323.15 K	0.0127	0.00365	0.000258	0.00544	0.00357	0.00224	0.0076	0.0115	0.00606	0.000953
328.15 K	0.0156	0.00448	0.00031	0.00705	0.00437	0.00267	0.0097	0.0148	0.00772	0.00125
